Experiments:
Assay type in all cases: biochemical
c-Met = molecular target: T1, c-Met (Homo sapiens, UniProt P08581); test: Kinase inhibition assay (33P transfer), c-Met; settings: Table 2, kinase inhibition class; read-out: Met-1
T1 construct: Kinases are expressed as either kinase domains or full length constructs; made in house
Summary of the method: (§1)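 IC50: inhibitor concentration lowering 33P incorporation into immobilised substrate by 50%. Label transferred from ATP to poly(Glu,Tyr) 4:1 or poly(Arg,Ser) 3:1 is measured after a 0.5% phosphoric acid wash by liquid scintillation.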

PDGFRB = molecular target: T2, PDGFRB (Homo sapiens, UniProt P09619); test: Kinase inhibition assay (33P transfer), PDGFRB; settings: read-out: PDGFRB-1
T2 construct: Kinases are expressed as either kinase domains or full length constructs; made in house

Lck = molecular target: T3, Lck (Homo sapiens, UniProt P06239); test: Kinase inhibition assay (33P transfer), Lck; settings: Table 3; read-out: Lck-1
T3 construct: Kinases are expressed as either kinase domains or full length constructs; made in house
Summary of the method: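 Radiometric readout: 33P incorporated into surface-bound poly(Glu,Tyr) 4:1 or poly(Arg,Ser) 3:1 is counted by liquid scintillation after a 0.5% phosphoric acid wash. Enzymes were GST or polyHis fusions (kinase domain or full length) from E. coli or High Five insect cells.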

Itk = molecular target: T4, Itk (Homo sapiens, UniProt Q08881); test: Kinase inhibition assay (33P transfer), Itk; settings: Table 3; read-out: Itk-1
T4 construct: Kinases are expressed as either kinase domains or full length constructs; made in house
T4 sequence (Q08881 1-620): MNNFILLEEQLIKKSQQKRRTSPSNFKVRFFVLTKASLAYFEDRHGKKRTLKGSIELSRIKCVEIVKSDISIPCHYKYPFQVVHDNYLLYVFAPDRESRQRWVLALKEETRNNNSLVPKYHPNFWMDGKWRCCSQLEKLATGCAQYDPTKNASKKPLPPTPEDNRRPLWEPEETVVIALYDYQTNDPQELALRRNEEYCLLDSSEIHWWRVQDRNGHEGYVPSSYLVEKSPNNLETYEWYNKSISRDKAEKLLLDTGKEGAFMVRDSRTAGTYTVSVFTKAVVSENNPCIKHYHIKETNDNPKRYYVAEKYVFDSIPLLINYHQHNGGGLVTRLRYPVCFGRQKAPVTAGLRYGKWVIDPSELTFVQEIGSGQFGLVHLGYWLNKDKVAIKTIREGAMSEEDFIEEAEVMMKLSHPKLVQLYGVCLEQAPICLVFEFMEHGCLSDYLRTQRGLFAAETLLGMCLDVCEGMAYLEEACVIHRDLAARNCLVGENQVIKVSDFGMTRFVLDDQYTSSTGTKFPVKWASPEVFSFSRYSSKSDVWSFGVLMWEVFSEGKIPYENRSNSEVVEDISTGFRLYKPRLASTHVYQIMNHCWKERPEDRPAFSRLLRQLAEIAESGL
Summary of the method: as §1

FGFR1 = molecular target: T5, FGFR1 (Homo sapiens, UniProt P11362); test: Kinase inhibition assay (33P transfer), FGFR1; settings: read-out: FGFR1-1
T5 construct: Kinases are expressed as either kinase domains or full length constructs; made in house
T5 sequence (P11362 22-822, species assumed): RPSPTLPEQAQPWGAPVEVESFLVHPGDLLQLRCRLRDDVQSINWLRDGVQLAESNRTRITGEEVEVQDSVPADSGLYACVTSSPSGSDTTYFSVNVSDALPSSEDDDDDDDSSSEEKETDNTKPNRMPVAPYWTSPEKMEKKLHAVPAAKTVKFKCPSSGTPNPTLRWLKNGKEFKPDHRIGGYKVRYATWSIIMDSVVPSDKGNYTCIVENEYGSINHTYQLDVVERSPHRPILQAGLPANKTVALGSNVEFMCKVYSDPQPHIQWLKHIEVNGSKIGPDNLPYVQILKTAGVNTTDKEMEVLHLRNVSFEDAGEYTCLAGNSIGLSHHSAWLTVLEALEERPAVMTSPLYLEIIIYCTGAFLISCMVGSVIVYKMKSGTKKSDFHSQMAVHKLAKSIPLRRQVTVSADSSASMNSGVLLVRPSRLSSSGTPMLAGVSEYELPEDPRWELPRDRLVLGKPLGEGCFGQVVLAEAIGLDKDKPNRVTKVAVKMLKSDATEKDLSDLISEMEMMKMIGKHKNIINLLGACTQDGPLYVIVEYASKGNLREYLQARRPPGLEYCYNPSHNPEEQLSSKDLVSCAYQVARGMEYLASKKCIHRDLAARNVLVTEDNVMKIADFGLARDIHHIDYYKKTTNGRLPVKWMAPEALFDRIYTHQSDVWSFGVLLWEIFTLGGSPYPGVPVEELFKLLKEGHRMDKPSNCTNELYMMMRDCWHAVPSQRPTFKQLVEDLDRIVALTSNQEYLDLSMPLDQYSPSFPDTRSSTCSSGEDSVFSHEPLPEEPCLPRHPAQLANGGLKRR

ErbB4 = molecular target: T6, ErbB4 (Homo sapiens, UniProt Q15303); test: Kinase inhibition assay (33P transfer), ErbB4; settings: read-out: ErbB4-1
T6 construct: Kinases are expressed as either kinase domains or full length constructs; made in house

Flt-1 = molecular target: T7, Flt-1 (Homo sapiens, UniProt P17948); test: Kinase inhibition assay (33P transfer), Flt-1
T7 construct: Kinases are expressed as either kinase domains or full length constructs; made in house
T7 sequence (P17948 27-1338, species assumed): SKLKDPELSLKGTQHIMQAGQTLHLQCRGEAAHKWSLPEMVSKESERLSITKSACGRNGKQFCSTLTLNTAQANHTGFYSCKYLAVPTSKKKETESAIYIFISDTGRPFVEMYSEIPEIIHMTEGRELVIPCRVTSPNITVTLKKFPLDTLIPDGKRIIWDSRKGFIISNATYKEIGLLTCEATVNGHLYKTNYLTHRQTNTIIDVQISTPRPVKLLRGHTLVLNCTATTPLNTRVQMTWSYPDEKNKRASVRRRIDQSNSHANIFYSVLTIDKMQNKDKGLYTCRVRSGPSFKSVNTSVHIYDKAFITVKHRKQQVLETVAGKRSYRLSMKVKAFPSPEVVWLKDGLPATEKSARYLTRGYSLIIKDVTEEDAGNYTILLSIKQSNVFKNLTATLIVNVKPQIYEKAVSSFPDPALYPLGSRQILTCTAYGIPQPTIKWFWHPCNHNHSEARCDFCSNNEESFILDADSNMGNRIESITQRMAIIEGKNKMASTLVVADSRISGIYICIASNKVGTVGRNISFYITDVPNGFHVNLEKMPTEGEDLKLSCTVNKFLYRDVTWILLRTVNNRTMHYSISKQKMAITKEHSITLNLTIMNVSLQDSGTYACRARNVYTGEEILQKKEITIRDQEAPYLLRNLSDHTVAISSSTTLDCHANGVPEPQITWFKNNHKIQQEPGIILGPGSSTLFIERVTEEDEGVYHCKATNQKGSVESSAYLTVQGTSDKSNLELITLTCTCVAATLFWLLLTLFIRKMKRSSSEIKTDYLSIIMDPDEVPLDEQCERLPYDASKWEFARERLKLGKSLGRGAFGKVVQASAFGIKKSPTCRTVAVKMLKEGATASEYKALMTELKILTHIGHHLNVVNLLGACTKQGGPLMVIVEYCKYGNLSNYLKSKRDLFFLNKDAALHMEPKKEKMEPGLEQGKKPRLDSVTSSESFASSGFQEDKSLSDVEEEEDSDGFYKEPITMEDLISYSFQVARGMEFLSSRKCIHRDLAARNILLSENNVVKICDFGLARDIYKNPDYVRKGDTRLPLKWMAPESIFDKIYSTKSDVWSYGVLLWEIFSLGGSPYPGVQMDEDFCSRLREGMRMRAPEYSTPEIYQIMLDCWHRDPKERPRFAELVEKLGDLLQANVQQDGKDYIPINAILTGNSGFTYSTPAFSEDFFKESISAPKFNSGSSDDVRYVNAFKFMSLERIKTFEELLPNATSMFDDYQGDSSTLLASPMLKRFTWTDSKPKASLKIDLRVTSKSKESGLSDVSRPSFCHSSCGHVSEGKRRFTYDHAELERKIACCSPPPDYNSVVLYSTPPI
Summary of the method: as §1

IGFR-1 = molecular target: T8, IGFR-1 (Homo sapiens, UniProt P08069); test: Kinase inhibition assay (33P transfer), IGFR-1; settings: Table 2, kinase inhibition class
T8 construct: Kinases are expressed as either kinase domains or full length constructs; made in house
T8 sequence (P08069 31-1367): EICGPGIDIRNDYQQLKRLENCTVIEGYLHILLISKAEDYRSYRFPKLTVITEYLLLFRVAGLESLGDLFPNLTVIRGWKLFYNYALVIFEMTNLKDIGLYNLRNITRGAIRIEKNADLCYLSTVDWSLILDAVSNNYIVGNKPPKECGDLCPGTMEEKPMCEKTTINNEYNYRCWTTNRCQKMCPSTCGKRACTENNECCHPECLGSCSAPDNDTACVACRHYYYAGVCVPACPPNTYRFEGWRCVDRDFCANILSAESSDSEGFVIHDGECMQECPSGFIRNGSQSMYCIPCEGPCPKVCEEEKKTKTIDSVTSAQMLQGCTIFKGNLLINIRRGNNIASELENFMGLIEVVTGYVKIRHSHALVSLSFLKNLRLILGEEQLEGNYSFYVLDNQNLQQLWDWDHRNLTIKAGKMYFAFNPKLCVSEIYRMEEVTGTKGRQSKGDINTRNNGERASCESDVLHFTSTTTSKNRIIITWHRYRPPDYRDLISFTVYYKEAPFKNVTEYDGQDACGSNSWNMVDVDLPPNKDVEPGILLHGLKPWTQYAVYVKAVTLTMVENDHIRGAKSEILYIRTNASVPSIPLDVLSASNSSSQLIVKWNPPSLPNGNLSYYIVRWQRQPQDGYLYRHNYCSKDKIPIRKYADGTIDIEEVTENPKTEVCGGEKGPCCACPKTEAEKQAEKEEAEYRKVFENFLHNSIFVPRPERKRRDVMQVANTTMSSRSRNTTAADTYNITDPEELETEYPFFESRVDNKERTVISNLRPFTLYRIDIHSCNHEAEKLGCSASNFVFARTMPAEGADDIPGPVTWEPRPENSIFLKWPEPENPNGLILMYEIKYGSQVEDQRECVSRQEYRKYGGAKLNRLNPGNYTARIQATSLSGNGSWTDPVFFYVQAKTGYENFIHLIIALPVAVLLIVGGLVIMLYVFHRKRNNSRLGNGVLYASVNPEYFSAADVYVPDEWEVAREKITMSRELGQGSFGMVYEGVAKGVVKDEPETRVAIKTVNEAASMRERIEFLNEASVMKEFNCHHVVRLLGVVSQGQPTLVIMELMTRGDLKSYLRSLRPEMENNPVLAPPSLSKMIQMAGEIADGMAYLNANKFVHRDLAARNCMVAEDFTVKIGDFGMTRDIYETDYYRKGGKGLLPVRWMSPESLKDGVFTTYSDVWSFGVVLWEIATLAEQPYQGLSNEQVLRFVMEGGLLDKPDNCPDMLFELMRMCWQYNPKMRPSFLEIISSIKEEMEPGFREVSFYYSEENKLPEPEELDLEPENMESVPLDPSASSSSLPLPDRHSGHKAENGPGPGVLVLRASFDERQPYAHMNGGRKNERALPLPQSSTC

EGFR = molecular target: T9, EGFR (Homo sapiens, UniProt P00533); test: Kinase inhibition assay (33P transfer), EGFR; settings: Table 2, kinase inhibition class; read-out: EGFR-1
T9 construct: Kinases are expressed as either kinase domains or full length constructs; made in house
Summary of the method: as §1

Fyn = molecular target: T10, Fyn (Homo sapiens, UniProt P06241); test: Kinase inhibition assay (33P transfer), Fyn; settings: read-out: Fyn-1
T10 construct: Kinases are expressed as either kinase domains or full length constructs; made in house
Summary of the method: as §1

Hck-1 = molecular target: T11, Hck-1 (Homo sapiens, UniProt P08631); test: Kinase inhibition assay (33P transfer), Hck; settings: Table 6, Hck-1 kinase inhibition class
T11 construct: Kinases are expressed as either kinase domains or full length constructs; made in house

Tek = molecular target: T12, Tek (Homo sapiens, UniProt Q02763); test: Kinase inhibition assay (33P transfer), Tek; settings: read-out: Tek-1
T12 construct: Kinases are expressed as either kinase domains or full length constructs; made in house
Summary of the method: as §1

T1 sequence (P08581 25-1390): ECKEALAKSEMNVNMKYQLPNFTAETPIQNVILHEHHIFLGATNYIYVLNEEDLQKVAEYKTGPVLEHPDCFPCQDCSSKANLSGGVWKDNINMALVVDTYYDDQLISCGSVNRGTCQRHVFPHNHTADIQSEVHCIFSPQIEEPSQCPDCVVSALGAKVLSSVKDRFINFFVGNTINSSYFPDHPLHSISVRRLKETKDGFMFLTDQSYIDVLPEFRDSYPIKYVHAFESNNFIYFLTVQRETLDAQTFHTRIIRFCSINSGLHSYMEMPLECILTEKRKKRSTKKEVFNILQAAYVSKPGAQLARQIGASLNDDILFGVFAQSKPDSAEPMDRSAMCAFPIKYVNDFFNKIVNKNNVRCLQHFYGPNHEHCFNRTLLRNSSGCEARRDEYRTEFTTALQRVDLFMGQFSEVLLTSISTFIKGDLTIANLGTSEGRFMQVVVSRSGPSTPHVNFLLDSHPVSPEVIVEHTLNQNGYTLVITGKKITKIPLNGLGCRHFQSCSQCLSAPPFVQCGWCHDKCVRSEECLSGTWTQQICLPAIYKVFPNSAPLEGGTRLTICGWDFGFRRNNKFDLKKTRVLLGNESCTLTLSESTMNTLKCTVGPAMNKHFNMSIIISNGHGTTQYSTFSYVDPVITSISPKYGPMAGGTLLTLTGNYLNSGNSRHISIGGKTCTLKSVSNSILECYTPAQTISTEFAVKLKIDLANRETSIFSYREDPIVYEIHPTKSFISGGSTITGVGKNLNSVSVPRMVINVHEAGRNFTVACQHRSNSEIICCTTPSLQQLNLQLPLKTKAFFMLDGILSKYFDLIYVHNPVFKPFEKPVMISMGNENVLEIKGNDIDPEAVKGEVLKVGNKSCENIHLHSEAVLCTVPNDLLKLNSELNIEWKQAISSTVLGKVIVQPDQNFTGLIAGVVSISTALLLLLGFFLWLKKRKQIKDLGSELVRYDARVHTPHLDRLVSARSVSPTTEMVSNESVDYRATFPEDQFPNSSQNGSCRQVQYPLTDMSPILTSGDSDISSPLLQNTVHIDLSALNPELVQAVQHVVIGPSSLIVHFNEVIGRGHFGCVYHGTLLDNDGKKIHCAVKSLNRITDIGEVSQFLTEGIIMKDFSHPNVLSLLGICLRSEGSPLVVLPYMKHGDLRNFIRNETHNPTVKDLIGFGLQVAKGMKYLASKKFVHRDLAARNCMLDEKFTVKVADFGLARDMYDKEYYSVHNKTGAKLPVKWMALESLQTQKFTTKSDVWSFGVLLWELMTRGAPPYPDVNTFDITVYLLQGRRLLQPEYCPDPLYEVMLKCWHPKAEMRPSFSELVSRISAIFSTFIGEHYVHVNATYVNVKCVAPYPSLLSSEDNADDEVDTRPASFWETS

| SMILES | IC50 (c-Met) [µM] | IC50 (PDGFRB) [µM] | IC50 (Lck) [µM] | IC50 (Itk) [µM] | IC50 (FGFR1) [µM] | IC50 (ErbB4) [µM] | IC50 (Flt-1) [µM] | IC50 (IGFR-1) [µM] | IC50 (EGFR) [µM] | IC50 (Fyn) [µM] | IC50 (Hck-1) [µM] | IC50 (Tek) [µM] |
| --- | --- | --- | --- | --- | --- | --- | --- | --- | --- | --- | --- | --- |
| COc1cc(Nc2ncnc(Nc3cccc4ccccc34)n2)cc(OC)c1OC [Compound 98] | > 11.2 | > 11.2 | < 0.991 | > 11.2 | 5.95 to 8.68 | > 11.2 | > 11.2 | > 11.2 | < 0.991 | 0.991 to 5.95 | > 11.2 | > 11.2 |
| COc1cc(Nc2ncnc(Nc3ccc(O)cc3)n2)cc(OC)c1OC [Compound 85] | > 12.2 | < 1.08 | < 1.08 | 1.08 to 6.5 | < 1.08 | 1.08 to 6.5 | < 1.08 | 1.08 to 6.5 | 1.08 to 6.5 | < 1.08 | > 12.2 | > 12.2 |
| COc1cc(Nc2ncnc(Nc3cccc4cccnc34)n2)cc(OC)c1OC [Compound 97] | > 11.1 | < 0.989 | 8.65 to 11.1 | > 11.1 | 5.93 to 8.65 | > 11.1 | 5.93 to 8.65 | > 11.1 | > 11.1 | 5.93 to 8.65 | > 11.1 | > 11.1 |
| COc1cc(Nc2ncnc(Nc3ccc4[nH]ccc4c3)n2)cc(OC)c1OC [Compound 928] | 6.12 to 8.92 | < 1.02 | < 1.02 | 6.12 to 8.92 | 1.02 to 6.12 | 1.02 to 6.12 | < 1.02 | < 1.02 | < 1.02 | > 11.5 | > 11.5 | > 11.5 |
| COc1cc(Nc2ncnc(Nc3ccc4cn[nH]c4c3)n2)cc(OC)c1OC [Compound 70] | > 11.4 | < 1.02 | 1.02 to 6.1 | 8.9 to 11.4 | 1.02 to 6.1 | 1.02 to 6.1 | < 1.02 | 1.02 to 6.1 | 1.02 to 6.1 | > 11.4 | > 11.4 | > 11.4 |
| COc1cc(Nc2ncnc(Nc3cc(C)c(O)cc3C)n2)cc(OC)c1OC [Compound 94] | > 11.3 | 1.01 to 6.04 | < 1.01 | > 11.3 | > 11.3 | 1.01 to 6.04 | 8.81 to 11.3 | 6.04 to 8.81 | < 1.01 | < 1.01 | > 11.3 | > 11.3 |
| COc1cc(Nc2ncnc(-n3c(N)nc4ccccc43)n2)cc(OC)c1OC [Compound 289] | 1.02 to 6.1 | < 1.02 | < 1.02 | 1.02 to 6.1 | < 1.02 | > 11.4 | < 1.02 | < 1.02 | > 11.4 | 1.02 to 6.1 | > 11.4 | 1.02 to 6.1 |
| COc1cc(Nc2ncnc(-c3ccnc(NCCCO)c3)n2)cc(OC)c1OC [Compound 180] | > 10.9 | 8.49 to 10.9 | 0.97 to 5.82 | > 10.9 | > 10.9 | > 10.9 | > 10.9 | > 10.9 | > 10.9 | 5.82 to 8.49 | > 10.9 | > 10.9 |
| COc1cc(Nc2ncnc(Nc3cc(OC)c(OC)c(OC)c3)n2)cc(OC)c1 [Compound 86] | > 10.9 | 0.968 to 5.81 | 0.968 to 5.81 | > 10.9 | > 10.9 | 0.968 to 5.81 | > 10.9 | < 0.968 | > 10.9 | 8.47 to 10.9 | > 10.9 | > 10.9 |
| COc1cc(Nc2ncnc(Nc3ccc(OCc4ccccc4)cc3)n2)cc(OC)c1OC [Compound 926] | 7.62 to 9.79 | < 0.871 | 0.871 to 5.22 | > 9.79 | 0.871 to 5.22 | > 9.79 | 0.871 to 5.22 | > 9.79 | 0.871 to 5.22 | 5.22 to 7.62 | > 9.79 | 7.62 to 9.79 |
| COc1cc(Nc2ncnc(-n3c(Nc4ccc5[nH]ccc5c4)nc4ccccc43)n2)cc(OC)c1OC [Compound 376] | 4.72 to 6.88 | < 0.787 | < 0.787 | 0.787 to 4.72 | < 0.787 | 6.88 to 8.85 | < 0.787 | 0.787 to 4.72 | 6.88 to 8.85 | 0.787 to 4.72 | > 8.85 | 0.787 to 4.72 |
| COc1cc(Nc2ncnc(Nc3ccccc3F)n2)cc(OC)c1OC [Compound 65] | > 12.1 | < 1.08 | 9.42 to 12.1 | > 12.1 | > 12.1 | > 12.1 | 1.08 to 6.46 | 1.08 to 6.46 | < 1.08 | > 12.1 | > 12.1 | > 12.1 |
| COc1cc(Nc2ncnc(Nc3cc(Cl)c(O)c(Cl)c3)n2)cc(OC)c1OC [Compound 68] | 7.99 to 10.3 | 0.913 to 5.48 | < 0.913 | > 10.3 | > 10.3 | > 10.3 | < 0.913 | < 0.913 | < 0.913 | > 10.3 | > 10.3 | > 10.3 |
| COc1cc(Nc2ncnc(N(c3ccc(Cl)cc3)c3nc4ccccc4[nH]3)n2)cc(OC)c1OC [Compound 374] | 0.794 to 4.76 | 0.794 to 4.76 | < 0.794 | > 8.93 | < 0.794 | 0.794 to 4.76 | 0.794 to 4.76 | > 8.93 | < 0.794 | 0.794 to 4.76 | 6.95 to 8.93 | 0.794 to 4.76 |
